In US20240158446A1, “CYCLIC COMPOUND HAVING SELECTIVE INHIBITORY ACTION ON KRAS OVER HRAS AND NRAS” (CHUGAI SEIYAKU KABUSHIKI KAISHA, priority 2021, published 2024):

What was measured:
[1] = target: GDP-bound HRAS wild-type protein (Homo sapiens, UniProt P01112); assay: Binding to HRAS by surface plasmon resonance (SPR), Single Cycle Kinetics; details: SPR; GDP-bound HRAS wild-type protein vs GDP-bound KRAS wild-type protein; KD ratio class
[2] = target: GDP-bound NRAS wild-type protein (Homo sapiens, UniProt P01111); assay: Binding to NRAS by surface plasmon resonance (SPR), Single Cycle Kinetics; details: SPR; GDP-bound NRAS wild-type protein vs GDP-bound KRAS wild-type protein; KD ratio class
[3] = target: GDP-bound KRAS wild-type protein (Homo sapiens, UniProt P01116); assay: Binding to KRAS by surface plasmon resonance (SPR), Single Cycle Kinetics; details: SPR, Single Cycle Kinetics, 1:1 binding model; GDP-bound KRAS wild-type protein; read-out: KRAS KD
[4] = system: human lung cancer strain NCI-H441;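 further: cell proliferation inhibition after four days measured by CellTiter-Glo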

Sequence of GDP-bound HRAS wild-type protein (P01112 whole entry): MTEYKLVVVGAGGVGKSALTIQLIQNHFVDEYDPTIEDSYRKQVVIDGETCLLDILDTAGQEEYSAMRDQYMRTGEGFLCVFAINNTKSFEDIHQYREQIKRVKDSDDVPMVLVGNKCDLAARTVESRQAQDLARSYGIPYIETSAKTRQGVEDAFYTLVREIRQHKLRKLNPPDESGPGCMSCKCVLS
Sequence of GDP-bound KRAS wild-type protein (P01116 whole entry): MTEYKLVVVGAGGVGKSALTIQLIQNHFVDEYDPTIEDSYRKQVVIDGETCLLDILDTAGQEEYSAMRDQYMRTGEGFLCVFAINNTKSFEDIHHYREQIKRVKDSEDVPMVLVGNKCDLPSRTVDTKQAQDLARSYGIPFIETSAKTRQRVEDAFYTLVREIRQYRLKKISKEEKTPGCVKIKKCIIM
Sequence of GDP-bound NRAS wild-type protein (P01111 whole entry): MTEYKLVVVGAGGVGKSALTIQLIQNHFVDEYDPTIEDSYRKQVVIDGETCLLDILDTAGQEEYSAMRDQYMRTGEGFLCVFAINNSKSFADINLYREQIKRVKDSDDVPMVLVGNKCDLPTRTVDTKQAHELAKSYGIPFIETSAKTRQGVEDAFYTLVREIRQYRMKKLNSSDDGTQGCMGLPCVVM

Structure (SMILES) | Kd [3] [nM] | IC50 [4] [nM] | HRAS/KRAS (ratio of KD value for HRAS to KD value for KRAS) [1] | NRAS/KRAS (ratio of KD value for NRAS to KD value for KRAS) [2]
CCO[C@@H]1C[C@H]2C(=O)NC3(CCC3)C(=O)N(C)[C@@H](C3CCCC3)C(=O)N(C)[C@H](C(=O)N(C)C)CC(=O)N(C)[C@@H](CC3CC3)C(=O)N[C@@H]([C@@H](C)CC)C(=O)N(C)CC(=O)N(C)[C@H]3C/C=C\CCN(C3=O)[C@@H](Cc3ccc(F)cc3)C(=O)N(C)CC(=O)N[C@@H](CCc3ccc4sccc4c3)C(=O)N2C1 [PP1426] | 1 | 475 | B (a compound having 3 or more and less than 10 is denoted as B) | A (a compound having 10 or more and less than 20 is denoted as A)
CCO[C@@H]1C[C@H]2C(=O)NC3(CCC3)C(=O)N(C)[C@@H](C3CCCC3)C(=O)N(C)[C@H](C(=O)N(C)C)CC(=O)N(C)[C@@H](CC(C)C)C(=O)N[C@@H]([C@@H](C)CC)C(=O)N(C)CC(=O)N(C)[C@H]3C/C=C\CCN(C3=O)[C@@H](Cc3ccc(F)cc3)C(=O)N(C)CC(=O)N[C@@H](CCc3ccc4sccc4c3)C(=O)N2C1 [PP1427] | 0.99 | 465 | B (a compound having 3 or more and less than 10 is denoted as B) | A (a compound having 10 or more and less than 20 is denoted as A)
CCO[C@@H]1C[C@H]2C(=O)NC3(CCC3)C(=O)N(C)[C@@H](C(CC)CC)C(=O)N(C)[C@H](C(=O)N(C)C)CC(=O)N(C)[C@@H](CC3CC3)C(=O)N[C@@H]([C@@H](C)CC)C(=O)N(C)CC(=O)N(C)[C@H]3C/C=C\CCN(C3=O)[C@@H](CC3CCCCC3)C(=O)N(C)CC(=O)N[C@@H](CCc3cc(F)c(C(F)(F)F)c(F)c3)C(=O)N2C1 [PP1428] | 0.87 | 38.8 | A (a compound having 10 or more and less than 20 is denoted as A) | AA (a compound having 20 or more is denoted as AA)
CCO[C@@H]1C[C@H]2C(=O)NC3(CCC3)C(=O)N(C)[C@@H](C(CC)CC)C(=O)N(C)[C@H](C(=O)N(C)C)CC(=O)N(C)[C@@H](CC3CCCC3)C(=O)N[C@@H]([C@@H](C)CC)C(=O)N(C)CC(=O)N(C)[C@H]3C/C=C\CCN(C3=O)[C@@H](CC3CCCCC3)C(=O)N(C)CC(=O)N[C@@H](CCc3cc(F)c(C(F)(F)F)c(F)c3)C(=O)N2C1 [PP1430] | 0.85 | 70.4 | A (a compound having 10 or more and less than 20 is denoted as A) | A (a compound having 10 or more and less than 20 is denoted as A)
CCO[C@@H]1C[C@H]2C(=O)NC3(CCC3)C(=O)N(C)[C@@H](C(CC)CC)C(=O)N(C)[C@H](C(=O)N(C)C)CC(=O)N(C)[C@@H](CC3CCCC3)C(=O)N[C@@H]([C@@H](C)CC)C(=O)N(C)CC(=O)N(C)[C@H]3C/C=C\CCN(C3=O)[C@@H](CC3CCC(F)(F)CC3)C(=O)N(C)CC(=O)N[C@@H](CCc3cc(F)c(C(F)(F)F)c(F)c3)C(=O)N2C1 [PP1431] | 0.57 | 41.2 | A (a compound having 10 or more and less than 20 is denoted as A) | AA (a compound having 20 or more is denoted as AA)
CCO[C@@H]1C[C@H]2C(=O)NC3(CCC3)C(=O)N(C)[C@@H](C(CC)CC)C(=O)N(C)[C@H](C(=O)N(C)C)CC(=O)N(C)[C@@H](CC(C)C)C(=O)N[C@@H]([C@@H](C)CC)C(=O)N(C)CC(=O)N(C)[C@H]3C/C=C\CCN(C3=O)[C@@H](CC3CCCCC3)C(=O)N(C)CC(=O)N[C@@H](CCc3cc(F)c(C(F)(F)F)c(F)c3)C(=O)N2C1 [PP1432] | 0.61 | 51.3 | A (a compound having 10 or more and less than 20 is denoted as A) | AA (a compound having 20 or more is denoted as AA)
CCO[C@@H]1C[C@H]2C(=O)NC3(CCC3)C(=O)N(C)[C@@H](C(CC)CC)C(=O)N(C)[C@H](C(=O)N3CCCC3)CC(=O)N(C)[C@@H](C)C(=O)N[C@@H]([C@@H](C)CC)C(=O)N(C)CC(=O)N(C)[C@H]3C/C=C\CCN(C3=O)[C@@H](CC3CCCCC3)C(=O)N(C)CC(=O)N[C@@H](CCc3cc(F)c(C(F)(F)F)c(F)c3)C(=O)N2C1 [PP1434] | 0.69 | 112 | A (a compound having 10 or more and less than 20 is denoted as A) | A (a compound having 10 or more and less than 20 is denoted as A)
CCO[C@@H]1C[C@H]2C(=O)NC3(CCCC3)C(=O)N(C)[C@@H](C(CC)CC)C(=O)N(C)[C@H](C(=O)N3CCCC3)CC(=O)N(C)[C@@H](C)C(=O)N[C@@H]([C@@H](C)CC)C(=O)N(C)CC(=O)N(C)[C@H]3C/C=C\CCN(C3=O)[C@@H](CC3CCCCC3)C(=O)N(C)CC(=O)N[C@@H](CCc3cc(F)c(C(F)(F)F)c(F)c3)C(=O)N2C1 [PP1435] | 1.1 | 178 | A (a compound having 10 or more and less than 20 is denoted as A) | A (a compound having 10 or more and less than 20 is denoted as A)

These reach a lower Kd [3]. Values come first.

Kd [3] [nM] | IC50 [4] [nM] | Structure (SMILES) | HRAS/KRAS (ratio of KD value for HRAS to KD value for KRAS) [1] | NRAS/KRAS (ratio of KD value for NRAS to KD value for KRAS) [2]
0.52 | 38.7 | CCO[C@@H]1C[C@H]2C(=O)NC3(CCC3)C(=O)N(C)[C@@H](C(CC)CC)C(=O)N(C)[C@H](C(=O)N(C)C)CC(=O)N(C)[C@@H](CC3CC3)C(=O)N[C@@H]([C@@H](C)CC)C(=O)N(C)CC(=O)N(C)[C@H]3C/C=C\CCN(C3=O)[C@@H](CC3CCC(F)(F)CC3)C(=O)N(C)CC(=O)N[C@@H](CCc3cc(F)c(C(F)(F)F)c(F)c3)C(=O)N2C1 [PP1429] | A (a compound having 10 or more and less than 20 is denoted as A) | AA (a compound having 20 or more is denoted as AA)
0.46 | 44.4 | CCO[C@@H]1C[C@H]2C(=O)NC3(CCC3)C(=O)N(C)[C@@H](C(CC)CC)C(=O)N(C)[C@H](C(=O)N(C)C)CC(=O)N(C)[C@@H](CC(C)C)C(=O)N[C@@H]([C@@H](C)CC)C(=O)N(C)CC(=O)N(C)[C@H]3C/C=C\CCN(C3=O)[C@@H](CC3CCC(F)(F)CC3)C(=O)N(C)CC(=O)N[C@@H](CCc3cc(F)c(C(F)(F)F)c(F)c3)C(=O)N2C1 [PP1433] | A (a compound having 10 or more and less than 20 is denoted as A) | AA (a compound having 20 or more is denoted as AA)
0.35 | 31.4 | CCO[C@@H]1C[C@H]2C(=O)NC3(CCC3)C(=O)N(C)[C@@H](C3CCCC3)C(=O)N(C)[C@H](C(=O)N3CCOCC3)CC(=O)N(C)[C@@H](CC3CCCCC3)C(=O)N[C@@H]([C@@H](C)CC)C(=O)N(C)CC(=O)N(C)[C@H]3C/C=C\CCN(C3=O)[C@@H](Cc3ccc(C)cc3)C(=O)N(C)CC(=O)N[C@@H](CCc3cc(F)c(C(F)(F)F)c(F)c3)C(=O)N2C1 [PP1420] | A (a compound having 10 or more and less than 20 is denoted as A) | A (a compound having 10 or more and less than 20 is denoted as A)
0.24 | 20.2 | CCO[C@@H]1C[C@H]2C(=O)NC3(CCC3)C(=O)N(C)[C@@H](C3CCCC3)C(=O)N(C)[C@H](C(=O)N3CCCC3)CC(=O)N(C)[C@@H](CC3CCC3)C(=O)N[C@@H]([C@@H](C)CC)C(=O)N(C)CC(=O)N(C)[C@H]3C/C=C\CCN(C3=O)[C@@H](Cc3ccc(C)cc3)C(=O)N(C)CC(=O)N[C@@H](CCc3cc(F)c(C(F)(F)F)c(F)c3)C(=O)N2C1 [PP1425] | B (a compound having 3 or more and less than 10 is denoted as B) | A (a compound having 10 or more and less than 20 is denoted as A)
0.23 | 26.3 | CCO[C@@H]1C[C@H]2C(=O)NC3(CCC3)C(=O)N(C)[C@@H](C3CCCC3)C(=O)N(C)[C@H](C(=O)N3CCOCC3)CC(=O)N(C)[C@@H](CC3CCC3)C(=O)N[C@@H]([C@@H](C)CC)C(=O)N(C)CC(=O)N(C)[C@H]3C/C=C\CCN(C3=O)[C@@H](Cc3ccc(C)cc3)C(=O)N(C)CC(=O)N[C@@H](CCc3cc(F)c(C(F)(F)F)c(F)c3)C(=O)N2C1 [PP1424] | A (a compound having 10 or more and less than 20 is denoted as A) | A (a compound having 10 or more and less than 20 is denoted as A)
0.22 | 14.1 | CCO[C@@H]1C[C@H]2C(=O)NC3(CCC3)C(=O)N(C)[C@@H](C3CCCC3)C(=O)N(C)[C@H](C(=O)N3CCOCC3)CC(=O)N(C)[C@@H](CC3CCC3)C(=O)N[C@@H]([C@@H](C)CC)C(=O)N(C)CC(=O)N(C)[C@H]3C/C=C\CCN(C3=O)[C@@H](Cc3ccc(C(F)(F)F)cc3)C(=O)N(C)CC(=O)N[C@@H](CCc3cc(F)c(C(F)(F)F)c(F)c3)C(=O)N2C1 [PP1422] | A (a compound having 10 or more and less than 20 is denoted as A) | AA (a compound having 20 or more is denoted as AA)
0.14 | 4.4 | CCO[C@@H]1C[C@H]2C(=O)NC3(CCC3)C(=O)N(C)[C@@H](C3CCCC3)C(=O)N(C)[C@H](C(=O)N3CCCC3)CC(=O)N(C)[C@@H](CC3CCC3)C(=O)N[C@@H]([C@@H](C)CC)C(=O)N(C)CC(=O)N(C)[C@H]3C/C=C\CCN(C3=O)[C@@H](Cc3ccc(C(F)(F)F)cc3)C(=O)N(C)CC(=O)N[C@@H](CCc3cc(F)c(C(F)(F)F)c(F)c3)C(=O)N2C1 [PP1423] | A (a compound having 10 or more and less than 20 is denoted as A) | AA (a compound having 20 or more is denoted as AA)
